# Reference: patent publication US10966962B2, “Method for treating neurodegenerative diseases” (THE BOARD OF TRUSTEES OF THE LELAND STANFORD JUNIOR …, priority 2014, dated 2021)
# Columns and labels:
# microglia [1] = assay: Microglia IL1 and TNFα in 5XFAD AD transgenic animals; type: in vivo, mice; conditions: 25 mg/kg orally 3 times a week for 4 weeks, 7 weeks of age
# From the text: 5XFAD transgenic mice, which are model of familial AD, were purchased from Jackson Laboratories (Oakley et al J Neurosci. 26:10129-40, 2006). These animals overexpress both mutant human APP(695) with the Swedish (K670N, M671L), Florida (I716V), and London (V7171) Familial Alzheimer's Disease (FAD) mutations and human PS1 harboring two FAD mutations, M146L and L286V. These transgenic mice rapidly recapitulate major features of amyloid pathology in AD by 8-10 weeks of age. Microglia abnormalities and neuroinflammation are also pronounced within this time window. Subsequently, neurodegeneration and behavioral dysfunction that mimic cognitive and psychiatric symptoms of human AD begin and are pronounced by 4-5 months of age. AD transgenic animals were orally treated 3 times a week for 4 weeks with 0.5% methylcellulose or ZLN005 (Sigma) at 25 mg/kg in 0.5% methylcellulose, starting at 3 weeks of age. For studies of microglia, 5[…]=10), 5XFAD-Ctrl (n=8) and WT (n=11) animals were sacrificed at 7 weeks of age. PBS-perfused brain tissues of sacrificed animals were digested with Collagenase IV and processed for flow cytometry. Brain microglia were phenotyped with antibodies directed against mouse IL1 and TNFα (Biolegend) for flow cytometric acquisition (LSRII, BD) and analysis (FlowJo). The results are summarized in FIG. 12; Y-axis represents % of microglia that express IL1 (A) and TNFα (B). […]
# STZ-treated mice = assay: Disease severity in acute STZ model of AD; type: in vivo; conditions: STZ-ZLN mice
# Protocol: To induce symptoms of AD, STZ (3 mg/kg, Sigma) was administered via intracerebral injection ([…] et al, Int J Neurosci, PMID 24494726, 2014). This is a well-established model of the sporadic form of AD. Briefly, animals were anesthetized and STZ solution in 5 μl artificial cerebrospinal fluid (Harvard Apparatus) was injected through the skull with a 50 μl syringe. Control animals received a similar volume of artificial cerebrospinal fluid without STZ. The injections were performed twice, on Day 1 and Day 3. […] Treatment with ZLN005 continued on a daily schedule until Day 4, when the animals were evaluated. […] In contrast, in STZ-Ctrl mice, only 10% were active, 70% were lethargic, and 20% of these animals had hind limb paralysis. […] The inventors designed a disease scoring system based on evidence of tissue inflammation: with scores of 1 (mild inflammation, increased vascularization/bleeding of internal organs), 2 (moderate inflammation, severe vascularization/bleeding of internal organs), and 3 (severe inflammation, intestinal or stomach swelling). […] The disease score presented in the example is the total score of the two scoring systems. […] Unpaired t-test was used for statistical analysis.
# microglia [2] = assay: Microglial metabolic phenotyping in MPTP-treated animals (Slc2a1 flow cytometry, ex vivo lactic acid production); design: species or system mice; conditions: 3 oral doses
# From the text: For measuring microglial expression of glucose transporter Slc2a1, MPTP-ZLN (n=10), MPTP-Ctrl (n=14), and Veh animals (n=14) were sacrificed. Brain microglia were phenotyped with antibody directed against glucose transporter Slc2a1 (RnD) for flow cytometric acquisition (LSRII, BD) and analysis (FlowJo). For measuring microglial glycolysis, MPTP-ZLN (n=8), MPTP-Ctrl (n=6), and Veh animals (n=6) were sacrificed. Microglia were sorted by flow cytometry and subjected to lactic acid production assays ex vivo (Cayman Chem) for glycolysis measurement. Y-axis represents Slc2a1 expression in median fluorescence units (MFI, A) and lactic acid production in micromolar units ([…], B). […] ANOVA was used for statistical analyses.
# microglia [3] = assay: Microglia metabolic phenotype in 5XFAD AD transgenic animals (MitotrackerGreen, 2-NBDG); type: in vivo, mice; conditions: 25 mg/kg orally 3 times a week for 4 weeks, 7 weeks of age
# Protocol: AD transgenic animals were orally treated 3 times a week for 4 weeks with 0.5% methylcellulose or ZLN005 (Sigma) at 25 mg/kg in 0.5% methylcellulose, starting at 3 weeks of age. For studies of microglia, 5[…]=10) and 5XFAD-Ctrl (n=8) animals and WT animals (n=11) were sacrificed at 7 weeks of age. PBS-perfused brain tissues of sacrificed animals were digested with Collagenase IV and processed for flow cytometry. Brain microglia were phenotyped with 2-NBDG and MitotrackerGreen (Invitrogen) for flow cytometric acquisition (LSRII, BD) and analysis (FlowJo). The results are summarized in FIG. 13; Y-axis represents % of microglia that highly expressed MitotrackerGreen (A) and had taken up 2-NBDG (B). Mitochondrial respiration and glycolysis are two key energy generating pathways in living cells. In immune cells like microglia, inflammatory transformation is associated with upregulation of glucose utilization and depression of mitochondrial biogenesis and function. […] ANOVA was used for statistical analyses.
# [4] = test system: CD115+CD11b+ blood monocytes; assay: Blood monocyte frequency in 5XFAD AD transgenic animals; type: in vivo, mice; conditions: 25 mg/kg orally 3 times a week for 4 weeks, 7 weeks of age
# Protocol: AD transgenic animals were orally treated 3 times a week for 4 weeks with 0.5% methylcellulose or ZLN005 (Sigma) at 25 mg/kg in 0.5% methylcellulose, starting at 3 weeks of age. For measuring the frequency of CD115+CD11b+ blood monocytes, 5[…]=5), 5XFAD-Ctrl (n=4), and WT animals (n=4) were sacrificed at 7 weeks of age. The results are summarized in FIG. 14; Y-axis represents % of total circulating monocytes among circulating immune cells. […] ANOVA was used for statistical analysis.
# ALS transgenic mice = assay: Wheel-running test in ALS transgenic animals; type: in vivo; conditions: 25 mg/kg orally 3 times a week for 4 weeks from 9 weeks of age
# Protocol: ALS transgenic mice were orally treated 3 times a week for 4 weeks with 0.5% methylcellulose or ZLN005 (Sigma) at 25 mg/kg in 0.5% methylcellulose, starting at 9 weeks of age. A wheel-running test was performed similarly to that described in Example 8. The animals started training at 13 weeks of age for 1.5 weeks of training on a treadmill at a constant speed of 10 rpm and then for 1.5 weeks of training at an accelerating speed from 5-15 rpm. After the training period at 14.5 and 16 weeks of age, animals were tested for motor performance at a constant speed and at an accelerating speed, respectively. […] Unpaired t-tests were used for statistical analyses.
compound,measurement,setting,value
"CC(C)(C)c1ccc(-c2nc3ccccc3[nH]2)cc1 [ZLN005, 2-(4-tert-butylphenyl)-1H-benzimidazole]",IL1 production in microglia,microglia [1],decreased
same,TNFα production in microglia,microglia [1],decreased
same,animals active,"STZ-treated mice; 25 mg/kg orally daily, Day 4",33%
same,animals paralyzed,"STZ-treated mice; 25 mg/kg orally daily, Day 4",none
same,animals showing evidence of lethargy,"STZ-treated mice; 25 mg/kg orally daily, Day 4",66%
same,mean disease score,"STZ-treated mice; day 4, total of inflammation and physical activity scores",1.6
same,lactic acid production in microglia,"microglia [2]; Day 4, ex vivo, vs MPTP-Ctrl",decreased
same,glucose transporter Slc2a1 expression in microglia,"microglia [2]; Day 4, vs MPTP-Ctrl",decreased
same,glucose uptake in microglia (2-NBDG),microglia [3],decreased
same,mitochondrial mass in microglia (Mitotracker Green),microglia [3],enhanced
same,percentage of monocytes among circulating immune cells,[4],decreased
same,latency to fall,"ALS transgenic mice; accelerating speed 5-15 rpm, 16 weeks of age",243.7 s
same,latency to fall,"ALS transgenic mice; constant speed 10 rpm, 14.5 weeks of age",296.3 s
